According to publication PMC9098524, “Structural basis of ion – substrate coupling in the Na^+-dependent dicarboxylate transporter VcINDY” (Nature Communications, 2022):

Molecular target: T1, VcINDY (Vibrio cholerae, UniProt Q9KNE0)
T1 construct: gene VC_A0025
Assay: intrinsic tryptophan fluorescence quenching ([…] nm excitation, […] nm emission), quadratic binding fit
Conditions: read-out: apparent Kd

O=C(O)CCC(=O)O [succinate]
Kd: 92.2 ± 47.4 µM
